Measured values reported in patent US20040106626A1, “6-Membered unsaturated heterocyclic compounds useful for selective inhibition of the coagulation cascade” (Pharmacia Corporation, priority 2001, published 2004).
Structures can show the parent of a compound that is named as a salt.

Experiments:
Type in all cases: biochemical
Human thrombin = molecular target: T1, Human thrombin (Homo sapiens, UniProt P00734); assay: Thrombin assay (chromogenic substrate); conditions: reported only as less than or greater than 30 uM; read-out: Thrombin (II) IC50
T1 construct: converts prothrombin (II) to thrombin (IIa); purchased Calbiochem, La Jolla, Calif
Outline: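 Percent inhibition derived by comparing OD405 nm of compound-treated and control samples. Thrombin cleavage of a p-nitroanilide chromogenic substrate provides the signal.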

[1] = test system: Normal human pooled plasma; assay: Prothrombin time (PT) clotting assay; conditions: concentration at which prothrombin time is prolonged by 2x normal, reported as less than or greater than 50 uM
Outline: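 Normal human pooled plasma incubated with 100 uM compound or saline, then thromboplastin (human tissue factor) added and clotting time recorded in a coagulation machine. Compounds exceeding 3× normal PT (11.0 s) are titrated to find the concentration doubling PT.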

[2] = molecular target: T2, recombinant soluble tissue factor and recombinant human factor VIIa (TF-VIIa) (Homo sapiens, UniProt P08709); assay: TF-VIIa assay (chromogenic substrate hydrolysis); conditions: reported only as less than or greater than 0.1 uM
T2 construct: conversion of coagulation factor VII to VIIa by factor Xa; purchased American Diagnostica, Greenwich CT; host or cells: soluble TF made in house in E. coli
T2 sequence (P08709 213-466 limits assumed): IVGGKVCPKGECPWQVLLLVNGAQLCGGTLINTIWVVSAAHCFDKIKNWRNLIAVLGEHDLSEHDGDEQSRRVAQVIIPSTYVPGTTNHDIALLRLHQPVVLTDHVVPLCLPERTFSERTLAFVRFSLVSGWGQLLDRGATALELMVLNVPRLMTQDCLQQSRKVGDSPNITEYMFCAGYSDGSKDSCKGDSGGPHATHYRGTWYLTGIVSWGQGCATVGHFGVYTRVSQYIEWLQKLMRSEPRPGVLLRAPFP
T2 sequence (P08709 61-212 limits assumed): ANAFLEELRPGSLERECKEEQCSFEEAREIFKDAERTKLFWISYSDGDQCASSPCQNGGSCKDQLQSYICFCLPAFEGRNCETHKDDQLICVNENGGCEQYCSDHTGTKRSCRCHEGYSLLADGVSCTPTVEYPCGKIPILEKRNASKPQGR
T2 sequence (P13726 33-251 partner limits assumed): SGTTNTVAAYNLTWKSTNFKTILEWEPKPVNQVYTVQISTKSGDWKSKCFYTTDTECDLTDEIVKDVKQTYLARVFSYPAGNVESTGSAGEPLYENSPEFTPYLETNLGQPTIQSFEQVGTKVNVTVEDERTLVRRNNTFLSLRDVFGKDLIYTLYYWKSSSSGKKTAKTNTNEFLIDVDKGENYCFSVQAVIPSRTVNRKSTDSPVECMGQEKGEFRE
Outline: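 Chromogenic read at OD405, compared with control for percent inhibition. Substrate N-methylsulfonyl-D-phe-gly-arg-p-nitroaniline at 0.4 mM is cleaved by recombinant human VIIa (2 nM) complexed with soluble TF (100 nM). Buffer: pH 8.0 Tris-HCl 50 mM, CaCl2 5 mM, NaCl 100 mM, BSA 0.1%.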

Human factor Xa = molecular target: T3, Human factor Xa (Homo sapiens, UniProt P00742); assay: Xa assay (chromogenic substrate S-2765); conditions: reported only as less than or greater than 30 uM; read-out: Factor Xa (II) IC50
T3 construct: purchased Enzyme Research Laboratories, South Bend Ind
T3 sequence (P00742 235-488 limits assumed): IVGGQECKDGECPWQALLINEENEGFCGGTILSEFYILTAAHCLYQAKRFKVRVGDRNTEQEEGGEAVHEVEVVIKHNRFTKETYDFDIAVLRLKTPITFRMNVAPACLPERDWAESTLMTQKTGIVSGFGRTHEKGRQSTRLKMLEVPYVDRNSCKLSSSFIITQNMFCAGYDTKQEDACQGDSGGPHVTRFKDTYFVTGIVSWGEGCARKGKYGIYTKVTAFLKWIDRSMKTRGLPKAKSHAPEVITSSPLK
T3 sequence (P00742 41-179 limits assumed): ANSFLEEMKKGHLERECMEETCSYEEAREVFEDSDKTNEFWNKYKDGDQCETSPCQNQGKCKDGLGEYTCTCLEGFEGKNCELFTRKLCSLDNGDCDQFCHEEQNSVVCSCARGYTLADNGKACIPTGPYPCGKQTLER
Outline: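 Chromogenic readout: S-2765 hydrolysis (0.15 mM) by 0.3 nM human FXa was monitored at 405 nm after 60 min at room temperature, with a time-zero background read. Buffer: 50 mM Tris-HCl, pH 8.0, 100 mM NaCl, 0.1% BSA. Inhibition is relative to buffer-only controls.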

SMILES | IC50 (Human thrombin) | PT (Prothrombin time) 2xPT [1] | IC50 [2] | IC50 (Human factor Xa)
CC(C)Nc1ncc(-c2cc(N)cc(NS(=O)(=O)CCc3ccccc3)c2)n(CC(=O)NCc2ccc(C(=N)N)cc2)c1=O [Example 95] | > 30 µM | <50.0 µM | < 0.1 µM | > 30 µM
CC(C)Nc1ncc(-c2cc(N)cc(NS(=O)(=O)c3ccccc3)c2)n(CC(=O)NCc2ccc(C(=N)N)cc2)c1=O [Example 96] | > 30 µM | <50.0 µM | < 0.1 µM | > 30 µM
CC(C)Nc1ncc(-c2cc(N)cc(NCc3ccccc3)c2)n(CC(=O)NCc2ccc(C(=N)N)cc2)c1=O [Example 98] | > 30 µM | <50.0 µM | < 0.1 µM | > 30 µM
CC(C)Nc1ncc(-c2cc(N)cc(NC(=O)Cc3ccccc3)c2)n(CC(=O)NCc2ccc(C(=N)N)cc2)c1=O [Example 99] | > 30 µM | <50.0 µM | < 0.1 µM | > 30 µM
CC(C)Nc1ncc(-c2cc(N)cc(NC(=O)C3CCCC3)c2)n(CC(=O)NCc2ccc(C(=N)N)cc2)c1=O [Example 100] | < 30 µM | <50.0 µM | < 0.1 µM | > 30 µM
CC(C)Nc1ncc(-c2cc(N)cc(NCCC(C)c3ccccc3)c2)n(CC(=O)NCc2ccc(C(=N)N)cc2)c1=O (stereo not drawn) [Example 101] | < 30 µM | <50.0 µM | < 0.1 µM | > 30 µM
CC(C)CCNc1cc(N)cc(-c2cnc(NC(C)C)c(=O)n2CC(=O)NCc2ccc(C(=N)N)cc2)c1 [Example 102] | < 30 µM | <50.0 µM | < 0.1 µM | > 30 µM
CC(C)Nc1ncc(-c2cc(N)cc(NCc3ccsc3)c2)n(CC(=O)NCc2ccc(C(=N)N)cc2)c1=O [Example 103] | > 30 µM | <50.0 µM | < 0.1 µM | > 30 µM
CCCC(C)C(=O)Nc1cc(N)cc(-c2cnc(NC(C)C)c(=O)n2CC(=O)NCc2ccc(C(=N)N)cc2)c1 (stereo not drawn) [Example 104] | < 30 µM | <50.0 µM | < 0.1 µM | > 30 µM
COc1cccc(CC(=O)Nc2cc(N)cc(-c3cnc(NC(C)C)c(=O)n3CC(=O)NCc3ccc(C(=N)N)cc3)c2)c1 [Example 105] | > 30 µM | <50.0 µM | < 0.1 µM | > 30 µM
CC(C)Nc1ncc(-c2cc(N)cc(NC(=O)CCc3ccccc3)c2)n(CC(=O)NCc2ccc(C(=N)N)cc2)c1=O [Example 106] | > 30 µM | <50.0 µM | < 0.1 µM | > 30 µM
CC(C)Nc1ncc(-c2cc(N)cc(NC(=O)CCC3CCCC3)c2)n(CC(=O)NCc2ccc(C(=N)N)cc2)c1=O [Example 107] | > 30 µM | <50.0 µM | < 0.1 µM | > 30 µM
CCCc1ccc(C(=O)Nc2cc(N)cc(-c3cnc(NC(C)C)c(=O)n3CC(=O)NCc3ccc(C(=N)N)cc3)c2)cc1 [Example 108] | < 30 µM | <50.0 µM | < 0.1 µM | > 30 µM
CC(C)Nc1ncc(-c2cc(N)cc(NC(=O)c3ccccc3)c2)n(CC(=O)NCc2ccc(C(=N)N)cc2)c1=O [Example 109] | < 30 µM | <50.0 µM | < 0.1 µM | > 30 µM
CC(C)Nc1ncc(-c2cc(N)cc(NCCc3ccccc3)c2)n(CC(=O)NCc2ccc(C(=N)N)cc2)c1=O [Example 110, N-{4-[amino(imino)methyl]benzyl}-2-[6-{3-amino-5-[(2-phenylethyl)amino]phenyl}-3-(isopropylamino)-2-oxopyrazin-1 (2H)-yl]acetamide trifluoroacetate] | > 30 µM | <50.0 µM | < 0.1 µM | > 30 µM
CC(C)Nc1ncc(-c2cc(N)cc(NCCCc3ccccc3)c2)n(CC(=O)NCc2ccc(C(=N)N)cc2)c1=O [Example 111] | > 30 µM | <50.0 µM | < 0.1 µM | > 30 µM
CC(C)CC(=O)Nc1cc(N)cc(-c2cnc(NC(C)C)c(=O)n2CC(=O)NCc2ccc(C(=N)N)cc2)c1 [Example 112] | < 30 µM | <50.0 µM | < 0.1 µM | > 30 µM

SMILES | IC50 (Human thrombin) | PT (Prothrombin time) 2xPT [1] | IC50 [2] | IC50 (Human factor Xa)
CC(C)Nc1ncc(-c2cc(N)cc(NC(=O)Nc3ccccc3)c2)n(CC(=O)NCc2ccc(C(=N)N)cc2)c1=O [Example 113] | > 30 µM | <50.0 µM | < 0.1 µM | > 30 µM
CC(C)Nc1ncc(-c2cc(N)cc(NC(=O)NCc3ccccc3)c2)n(CC(=O)NCc2ccc(C(=N)N)cc2)c1=O [Example 114] | > 30 µM | <50.0 µM | < 0.1 µM | > 30 µM
CC(C)Nc1ncc(-c2cc(N)cc(C(F)(F)F)c2)n(CC(=O)NCc2cc(O)c(C(=N)N)c(F)c2)c1=O.O=C(O)C(F)(F)F [Example 116] | > 30 µM | <50.0 µM | > 0.1 µM | < 30 µM
CC(C)Nc1ncc(-c2cc(N)cc(C(=O)O)c2)n(CC(=O)NCc2ccc(C(=N)N)cc2)c1=O.O=C(O)C(F)(F)F [Example 118] | > 30 µM | <50.0 µM | < 0.1 µM | > 30 µM
COCCNC(=O)c1cc(N)cc(-c2cnc(NC(C)C)c(=O)n2CC(=O)NCc2ccc(C(=N)N)cc2)c1.O=C(O)C(F)(F)F [Example 119] | < 30 µM | <50.0 µM | < 0.1 µM | > 30 µM
COc1cc(N)cc(-c2cnc(NC(C)C)c(=O)n2CC(=O)NCc2cc(O)c(C(=N)N)c(F)c2)c1.Cl.Cl [Example 123] | > 30 µM | <50.0 µM | < 0.1 µM | > 30 µM
CC(C)Nc1ncc(-c2cc(N)cc(C(=O)OC(C)C)c2)n(CC(=O)NCc2ccc(C(=N)N)cc2)c1=O.O=C(O)C(F)(F)F [Example 124, Isopropyl 3-amino-5-[1-[2-({4-[amino(imino)methyl]benzyl}amino)-2-oxoethyl]-5-(isopropylamino)-6-oxo-1,6-dihydropyrazin-2-yl]benzoate] | > 30 µM | <50.0 µM | < 0.1 µM | > 30 µM
CC[C@H](C)NC(=O)c1cc(N)cc(-c2cnc(NC(C)C)c(=O)n2CC(=O)NCc2ccc(C(=N)N)cc2)c1.O=C(O)C(F)(F)F [Example 127] | < 30 µM | <50.0 µM | < 0.1 µM | > 30 µM
CCCC(C)C(=O)Nc1cc(N)cc(-c2cnc(NC(C)C)c(=O)n2CC(=O)NCc2ccc(C(=N)N)cc2)c1.O=C(O)C(F)(F)F.O=C(O)C(F)(F)F (stereo not drawn) [Example 128] | > 30 µM | <50.0 µM | < 0.1 µM | > 30 µM
CCCC(=O)Nc1cc(N)cc(-c2cnc(NC(C)C)c(=O)n2CC(=O)NCc2ccc(C(=N)N)cc2)c1.O=C(O)C(F)(F)F.O=C(O)C(F)(F)F [Example 130] | < 30 µM | <50.0 µM | < 0.1 µM | > 30 µM
CCC(C)C(=O)Nc1cc(N)cc(-c2cnc(NC(C)C)c(=O)n2CC(=O)NCc2ccc(C(=N)N)cc2)c1.O=C(O)C(F)(F)F.O=C(O)C(F)(F)F (stereo not drawn) [Example 131] | < 30 µM | <50.0 µM | < 0.1 µM | > 30 µM
CC(C)Nc1ncc(-c2cc(N)cc(NC(=O)CC(C)(C)C)c2)n(CC(=O)NCc2ccc(C(=N)N)cc2)c1=O.O=C(O)C(F)(F)F.O=C(O)C(F)(F)F [Example 133] | < 30 µM | <50.0 µM | < 0.1 µM | > 30 µM
CCC(CC)C(=O)Nc1cc(N)cc(-c2cnc(NC(C)C)c(=O)n2CC(=O)NCc2ccc(C(=N)N)cc2)c1.O=C(O)C(F)(F)F.O=C(O)C(F)(F)F [Example 134] | < 30 µM | <50.0 µM | < 0.1 µM | > 30 µM
CC(C)CCC(=O)Nc1cc(N)cc(-c2cnc(NC(C)C)c(=O)n2CC(=O)NCc2ccc(C(=N)N)cc2)c1.O=C(O)C(F)(F)F.O=C(O)C(F)(F)F [Example 135] | < 30 µM | <50.0 µM | < 0.1 µM | > 30 µM
CCCC(CCC)C(=O)Nc1cc(N)cc(-c2cnc(NC(C)C)c(=O)n2CC(=O)NCc2ccc(C(=N)N)cc2)c1.O=C(O)C(F)(F)F.O=C(O)C(F)(F)F [Example 136] | < 30 µM | <50.0 µM | < 0.1 µM | > 30 µM
CCCCC(CC)C(=O)Nc1cc(N)cc(-c2cnc(NC(C)C)c(=O)n2CC(=O)NCc2ccc(C(=N)N)cc2)c1.O=C(O)C(F)(F)F.O=C(O)C(F)(F)F (stereo not drawn) [Example 137] | < 30 µM | <50.0 µM | < 0.1 µM | > 30 µM
